Data reported in patent publication US11187660B2, “Fluorescent probes for monitoring voltage by photo-induced electron transfer” (The Regents of the University of California, priority 2011, dated 2021).

Test system: rat hippocampal neurons
Experiment: Optical detection of evoked action potentials in cultured hippocampal neurons
Type: cell-based
Experimental: To assay VF2.4.Cl's utility for monitoring neuronal activity, hippocampal neurons isolated from rats neonates were loaded with 2 μM VF2.4.Cl for 15 minutes, washed twice and imaged. […] Neurons were patched, current clamped, and injected with a small pulse (250-400 pA, 1-5 ms) to induce action potential firing. By using a high speed EMCCD camera, capable of sampling small regions of interest (ROI) at rates of approximately 2 kHz, enabled single trial optical detection of action potentials. An action potential with a total voltage change of ˜130 mV was well resolved optically and gave a ΔF/F of 24% with a signal-to-noise ratio of 16. Smaller spikes were detectable as well, a 100 mV change gave a ΔF/F of 15% with an SNR of 15. The slightly diminished sensitivity in neurons (0.15% per mV in neurons vs 0.25% per mV in HEK cells) can be explained primarily by the heterogeneous nature of the preparation; overlapping, non-excitable membranes loaded with VF2.4.Cl contribute to a non-responsive fluorescent signal which dilutes the responsive fraction.
To assess whether VF probes can detect action potentials in single trials, we used cultured rat hippocampal neurons. […] We then injected current into a neuron under whole-cell patch-clamp mode to trigger single action potentials and used a high-speed, back-illuminated EMCCD camera to track fast optical signals from VF2.4.Cl, enabling us to resolve action potentials in neurons in single sweeps (FIG. 13B). The optical trace matched the physiology trace and gave about a 20% ΔF/F increase in fluorescence and a 16:1 signal-to-noise ratio (SNR) in a single trial.
HEK293 cells were cultured in DMEM (CellGrow) supplemented with 10% FBS, 1% penicillin/streptomycin (Invitrogen) and plated on glassbottom culture dishes (35 mm dish, 14 mm microwell with No. 0 coverglass) (MatTek Corporation). Hippocampal neurons were dissected from postnatal day 0 or 1 rat pups and plated on poly-D-lysine-coated glassbottom culture dishes. Neuronal recordings were made 14-28 days in culture.
Electrophysiological recordings of HEK293 cells and cultured neurons were performed with an Axopatch 200A or 200B amplifier (Molecular Devices) at room temperature. The signals were digitized with Digidata 1332A and recorded with pCLAMP 9 software (Molecular Devices) on a PC. Analysis of electrophysiological data was done with AxoGraph X (AxoGraphX), pCLAMP 9, and/or ClampFit (Molecular Devices). For most experiments the extracellular solution consisted of (in mM) 145 NaCl, 20 glucose, 10 HEPES, 3 KCl, 2 CaCl2, 1 MgCl2 (pH 7.35, 310 mOsm). The intracellular solution contained (in mM) 115 potassium gluconate, 10 BAPTA tetrapotassium salt, 10 HEPES, 5 NaCl, 10 KCl, 2 ATP disodium salt, 0.3 GTP trisodium salt (pH 7.25, 290 mOsm).
For voltage sensitivity measurements, regions of interest were drawn around clamped cells and the mean fluorescence measured in ImageJ or Slidebook. For HEK cells, background fluorescence was subtracted by measuring the fluorescence where no cells grew. For experiments in neurons, the background fluorescence was not subtracted. In all cases, ΔF/F was calculated by dividing the fluorescence signal by the average fluorescence for a baseline of 10-20 frames prior to stimulation.

CCCCN(CCCC)c1ccc(/C=C/c2ccc(/C=C/c3ccc(-c4c5cc(Cl)c(=O)cc-5oc5cc(O)c(Cl)cc45)c(S(=O)(=O)O)c3)cc2)cc1 [VF2.4.Cl, 5-(4-(4-(dibutylamino)styryl)styryl)-2-(2,7-dichloro-6-hydroxy-3-oxo-3H-xanthen-9-yl)benzenesulfonic acid]
SNR (100 mV change): 15
ΔF/F for smaller spike (100 mV change): 15%
signal-to-noise ratio (action potential ~130 mV, single trial): 16
sensitivity in neurons (rat hippocampal neurons): 0.15 % per mV
ΔF/F increase in fluorescence for evoked action potential (single trial, 2 μM, EMCCD 2 kHz): ~20%
ΔF/F for action potential (total voltage change ~130 mV, single trial, 2 μM): 24%
